Measurements published in patent publication US20100183600A1, “RAF Inhibitors and Their Uses” (ARQULE, INC., priority 2008, published 2010).

What was measured:
Assay in all cases: Cell growth inhibition assay (MTS)
Format in all cases: cell-based
[1] = test system: HT-1080; conditions: Homo sapiens; HT-1080, fibrosarcoma
How it was run: (§1)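 Seeding: 1-5×10^3 cells per well, 24 h at 37° C. Treatment: test compounds for 72 hours in DMEM-based medium. Detection: MTS with phenazine methosulfate for 4 hr, absorbance at 492 nm, with IC50 taken at 50% signal reduction.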

[2] = test system: MDAMB-231; conditions: Homo sapiens, MDA-MB-231; MDAMB-231, breast adenocarcinoma
How it was run: as §1

[3] = test system: SW480; conditions: Homo sapiens; SW480, colon
How it was run: as §1

[4] = test system: SNU475; conditions: Homo sapiens, SNU-475; SNU475, liver
How it was run: as §1

[5] = test system: NCI-H358; conditions: Homo sapiens; NCI-H358, non-small cell lung cancer, brancioalveolar carcinoma
How it was run: as §1

[6] = test system: THP-1; conditions: Homo sapiens; THP-1, acute monocytic leukemia
How it was run: as §1

[7] = test system: SW620; conditions: Homo sapiens, SW-620; SW620, colorectal adenocarcinoma
How it was run: as §1

[8] = test system: Kato111; conditions: Homo sapiens; Kato111, gastric carcinoma
How it was run: as §1

[9] = test system: SK-OV-3; conditions: Homo sapiens; SK-OV-3, ovary
How it was run: as §1

[10] = test system: PLC/PRF/5; conditions: Homo sapiens; PLC/PRF/5, liver
How it was run: as §1

[11] = test system: HEP-G2; conditions: Homo sapiens, HepG2; HEP-G2, hepatocellular carcinoma
How it was run: as §1

[12] = test system: MCF-7; conditions: Homo sapiens, MCF7; MCF-7, breast adenocarcinoma
How it was run: as §1

[13] = test system: SW780; conditions: Homo sapiens; SW780, bladder
How it was run: as §1

[14] = test system: LS411N; conditions: Homo sapiens, LS-411N, colorectal carcinoma
How it was run: as §1

[15] = test system: CFPPAC-1; conditions: Homo sapiens; CFPPAC-1, pancreasductal adenocarcinoma; cystic fibrosis
How it was run: as §1

[16] = test system: NCI-H526; conditions: Homo sapiens; NCI-H526, lung carcinoma, variant small cell lung cancer
How it was run: as §1

[17] = test system: SK-HEP-1; conditions: Homo sapiens, SK-HEP1; SK-HEP-1, liver adenocarcinoma
How it was run: as §1

[18] = test system: KG-1; conditions: Homo sapiens; KG-1, AML
How it was run: as §1

[19] = test system: WIDR; conditions: Homo sapiens, colorectal adenocarcinoma
How it was run: as §1

[20] = test system: NCI-H661; conditions: Homo sapiens; NCI-H661, large cell lung carcinoma
How it was run: as §1

[21] = test system: CAKI-2; conditions: Homo sapiens; CAKI-2, kidney
How it was run: as §1

[22] = test system: NTERA-2 c1. D1; conditions: Homo sapiens, NTERA2; NTERA-2 c1. D1, testis pluripotent embryonal carcinoma
How it was run: as §1

[23] = test system: K562; conditions: Homo sapiens; K562, CML
How it was run: as §1

[24] = test system: ASPC-1; conditions: Homo sapiens, ASPC1; ASPC-1, pancreas
How it was run: as §1

[25] = test system: SKMES-1; conditions: Homo sapiens, SK-MES-1; SKMES-1, squamous cell carcinoma
How it was run: as §1

[26] = test system: U937; conditions: Homo sapiens, U-937; U937, monocyte histocytic lymphoma
How it was run: as §1

[27] = test system: MKN-45; conditions: Homo sapiens; MKN-45, stomach
How it was run: as §1

[28] = test system: HEC1A; conditions: Homo sapiens, HEC-1-A, endometrial
How it was run: as §1

[29] = test system: SK-LMS-1; conditions: Homo sapiens; SK-LMS-1, leiomyosarcoma
How it was run: as §1

[30] = test system: CALU-6; conditions: Homo sapiens; CALU-6, lung
How it was run: as §1

[31] = test system: COLO-205; conditions: Homo sapiens; COLO-205, colon
How it was run: as §1

[32] = test system: NCI-H1299; conditions: Homo sapiens; NCI-H1299, non-small cell lung carcinoma
How it was run: as §1

[33] = test system: RT4; conditions: RT-4; RT4, human urinary bladder cell carcinoma
How it was run: as §1

Question: Which GI50 [1] does the source give for `Cn1ccc(S(=O)(=O)N2CCC[C@@H](Nc3nccc(-c4c(-c5cccc(OCOP(=O)(O)O)c5)nc5occn45)n3)C2)n1` [Compound 19, (R)-(3-(5-(2-(1-(1-methyl-1H-pyrazol-3-ylsulfonyl)piperidin-3-ylamino)pyrimidin-4-yl)imidazo[2,1-b]oxazol-6-yl)phenoxy)methyl dihydrogen phosphate] here?
Answer: 26.8 µM

Question: What about the GI50 [2] of the same compound?
Answer: 28.2 µM

Question: And the GI50 [3]?
Answer: 8.27 µM

Question: And the GI50 [4]?
Answer: 29.1 µM

Question: And the GI50 [5]?
Answer: 7.5 µM

Question: And the GI50 [6]?
Answer: 10.3 µM

Question: What about the GI50 [7] of the same compound?
Answer: 22.8 µM

Question: And the GI50 [8]?
Answer: 6.11 µM

Question: What about the GI50 [9] of the same compound?
Answer: 13.7 µM

Question: And the GI50 [10]?
Answer: 13.6 µM

Question: What about the GI50 [11] of the same compound?
Answer: 1.38 µM

Question: What about the GI50 [12] of the same compound?
Answer: 12.5 µM

Question: What about the GI50 [13] of the same compound?
Answer: 9.1 µM

Question: What about the GI50 [14] of the same compound?
Answer: 0.31 µM

Question: What about the GI50 [15] of the same compound?
Answer: 11.9 µM

Question: And the GI50 [16]?
Answer: 58.9 µM

Question: And the GI50 [17]?
Answer: 7.22 µM

Question: And the GI50 [18]?
Answer: 30.8 µM

Question: What about the GI50 [19] of the same compound?
Answer: 20.2 µM

Question: What about the GI50 [20] of the same compound?
Answer: 16.2 µM

Question: And the GI50 [21]?
Answer: 26.2 µM

Question: And the GI50 [22]?
Answer: 5.32 µM

Question: What about the GI50 [23] of the same compound?
Answer: 9.86 µM

Question: And the GI50 [24]?
Answer: 6.33 µM

Question: What about the GI50 [25] of the same compound?
Answer: 9.02 µM

Question: And the GI50 [26]?
Answer: 20.2 µM

Question: And the GI50 [27]?
Answer: 21.4 µM

Question: What about the GI50 [28] of the same compound?
Answer: 2.72 µM

Question: What about the GI50 [29] of the same compound?
Answer: 15.2 µM

Question: What about the GI50 [30] of the same compound?
Answer: 2.97 µM

Question: And the GI50 [31]?
Answer: 0.25 µM

Question: What about the GI50 [32] of the same compound?
Answer: 6.38 µM

Question: What about the GI50 [33] of the same compound?
Answer: 10 µM
